This passage reports Ki and IC50 results from US20230203041A1, “ANTAGONISTS OF THE ADENOSINE A2A RECEPTOR” (AdoRx Therapeutics Limited, priority 2020, published 2023).

The target in test [1] is T1, human Adenosine A2a receptor (Homo sapiens, UniProt P29274).
T1 construct: expressed in transfected cells; host or cells: CHO cell membranes
The test can be described thus: Adenosine receptor TR-FRET binding assay (CA200645 displacement), A2a. Conditions: 100 nM CA200645, CHO cell membranes, 2 hours at room temperature. (TR-FRET usually uses a lanthanide donor and a delayed reading to cut background.)

The target in test [2] is T2, human Adenosine A2b receptor (Homo sapiens, UniProt P29275).
T2 construct: expressed in transfected cells; host or cells: CHO cell membranes
T2 sequence (P29275 1-332): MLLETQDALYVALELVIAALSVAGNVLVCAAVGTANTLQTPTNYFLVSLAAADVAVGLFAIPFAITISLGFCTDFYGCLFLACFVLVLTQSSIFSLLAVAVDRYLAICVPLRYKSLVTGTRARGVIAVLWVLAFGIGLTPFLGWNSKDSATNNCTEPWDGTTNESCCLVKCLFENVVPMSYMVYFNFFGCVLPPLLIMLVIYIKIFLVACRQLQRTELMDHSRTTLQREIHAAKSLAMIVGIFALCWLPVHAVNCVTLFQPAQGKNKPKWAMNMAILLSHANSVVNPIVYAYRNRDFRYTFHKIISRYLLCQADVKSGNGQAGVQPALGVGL
The test can be described thus: Adenosine receptor TR-FRET binding assay (CA200645 displacement), A2b. The conditions noted are these: 30 nM CA200645, CHO cell membranes, 2 hours at room temperature.

The next test deals with human PBMCs. Kind of test: CD3/CD28 stimulated IL-2 release NECA reversal assay in human PBMCs.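 Also: dose-response as % inhibition where 100% equals no-NECA control wells with CD3/CD28.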 The test is classed as cell-based. The conditions noted are these: PBMC, CD3/CD28 antibody stimulated, 1 uM NECA, 24 hours, IL-2 in culture supernatant. On the procedure:
Blood is drawn from healthy volunteers using sodium citrate as the anticoagulant (0.3% final concentration). After centrifugation of the blood over Histopaque-1077, PBMCs are collected from the Histopaque/plasma interface and washed twice in PBS (300 g for 10 mins at room temp). Cells are plated at 50,000 cells/well in 150 μl RPMI/10% FCS in 96-well cell culture plates that have been precoated with 1 ug/ml CD3 antibody. 50 μl diluted compound mix is added to the cells, to obtain final concentrations of 1 ug/ml CD28 antibody, 1 uM NECA and 0.003-10 μM adenosine receptor antagonist. Assay plates are incubated for 24 hours at 37° C. in a humidified incubator. Culture supernatant is tested for IL-2 levels using the human IL-2 Tissue Culture Kit (Meso Scale Discovery).

Test [3] concerns CD8+ T cells in human whole blood. The test can be described thus: Measurement of pCREB in CD8+ T cells in human whole blood. The format is cell-based. The conditions noted are these: T-cell, 1 h; heparinised human whole blood, rolipram, 3 μM NECA, 60 min, phospho-CREB in CD8+ T cells by FACS. How it is done: Heparinised human whole blood was pre-incubated at 37° C. with serial dilutions of A2a antagonists for 20 min. and the phosphodiesterase inhibitor rolipram to amplify the pCREB response. The adenosine receptor agonist NECA is then added at a final concentration of 3 μM and following a 60 min incubation the blood is fixed and red blood cells lysed. White blood cells are isolated, permeabilized and stained with directly conjugated fluorescent antibodies to phospho-CREB (Alexa Fluor 488) and CD8 (Alexa Fluor 647) and the level of phospho-CREB in CD8+ T cells is measured by FACS using a BD Accuri C6 Flow Cytometer.
A general note: A flow cytometer gives signals particle by particle.

Test [4] concerns the target T3, human Adenosine A1 receptor (Homo sapiens, UniProt P30542).
T3 sequence (P30542 1-326): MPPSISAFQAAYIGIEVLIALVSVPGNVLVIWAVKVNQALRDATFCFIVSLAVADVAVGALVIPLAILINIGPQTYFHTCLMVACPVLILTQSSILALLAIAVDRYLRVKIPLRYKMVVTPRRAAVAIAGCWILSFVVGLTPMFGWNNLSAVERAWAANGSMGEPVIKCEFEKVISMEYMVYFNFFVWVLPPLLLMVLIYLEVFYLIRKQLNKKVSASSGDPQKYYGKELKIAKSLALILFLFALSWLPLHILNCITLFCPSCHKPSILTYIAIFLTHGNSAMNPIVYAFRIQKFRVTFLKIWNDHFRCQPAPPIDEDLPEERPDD
Kind of test: Adenosine receptor TR-FRET binding assay (CA200645 displacement), A1.

Test [5] concerns the target T4, human Adenosine A3 receptor (Homo sapiens, UniProt P0DMS8).
T4 sequence (P0DMS8 1-318): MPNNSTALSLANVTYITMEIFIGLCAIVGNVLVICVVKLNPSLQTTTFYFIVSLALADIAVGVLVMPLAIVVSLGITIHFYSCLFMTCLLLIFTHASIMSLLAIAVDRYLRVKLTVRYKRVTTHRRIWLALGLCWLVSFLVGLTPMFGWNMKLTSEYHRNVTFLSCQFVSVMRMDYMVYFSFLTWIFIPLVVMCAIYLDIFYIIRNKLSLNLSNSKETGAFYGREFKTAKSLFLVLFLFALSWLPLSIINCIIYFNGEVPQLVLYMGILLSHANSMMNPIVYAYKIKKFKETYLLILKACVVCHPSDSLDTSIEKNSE
Kind of test: Adenosine receptor TR-FRET binding assay (CA200645 displacement), A3.

T1 sequence (P29274 whole entry): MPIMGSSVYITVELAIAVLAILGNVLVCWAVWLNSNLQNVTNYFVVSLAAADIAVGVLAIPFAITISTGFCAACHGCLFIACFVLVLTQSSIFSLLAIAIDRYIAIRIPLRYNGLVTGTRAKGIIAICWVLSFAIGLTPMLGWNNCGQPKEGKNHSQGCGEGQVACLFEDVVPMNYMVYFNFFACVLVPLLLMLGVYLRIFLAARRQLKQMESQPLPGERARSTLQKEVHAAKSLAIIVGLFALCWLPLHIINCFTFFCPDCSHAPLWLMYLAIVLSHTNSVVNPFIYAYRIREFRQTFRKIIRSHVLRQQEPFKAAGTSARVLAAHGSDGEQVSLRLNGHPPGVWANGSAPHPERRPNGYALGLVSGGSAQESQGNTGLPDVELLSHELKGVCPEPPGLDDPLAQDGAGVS

As to `CCN1CCC(Nc2ccn3nc(-c4cccc(C#N)c4)c(-c4cc(C)nc(Cl)c4)c3n2)CC1` [Example 2.4], the Ki in test [1] was 0.7 nM; in test [2] it was 2 nM; in test [4], 53 nM; in test [5], over 1000 nM. In addition, the IC50 with human PBMCs was determined as 32 nM; in test [3], 2820 nM.
`Cc1cc(-c2c(-c3cccc(C#N)c3)nn3ccc(NCC4(O)COC4)nc23)cc(Cl)n1` [Example 2.8]: the Ki is 1.3 nM in test [1], 3 nM in test [2], 62 nM in test [4] and over 1000 nM in test [5]. Moreover, the IC50 was 41 nM in the test with human PBMCs and 610 nM in test [3].
As to `Cc1cc(-c2c(-c3cccc(C#N)c3)nn3ccc(NCCC(C)(C)O)nc23)cc(Cl)n1` [Example 2.9], the inhibition constant Ki in test [1] was 1.4 nM; in test [2], 19 nM; in test [4] it was 31 nM; in test [5], over 1000 nM. Further, the IC50 in the test on human PBMCs stood at 19 nM; in test [3], 70 nM.
For the molecule `Cc1cc(-c2c(-c3cccc(C#N)c3)nn3ccc(N[C@H]4C[C@@H](O)C4)nc23)cc(Cl)n1` [Example 2.10], the Ki in test [1] was 1.4 nM; in test [2] it was 10 nM; in test [4], 119 nM; in test [5], 1550 nM. In addition, the IC50 in the test with human PBMCs was 48 nM; in test [3] it was 1190 nM.
For the molecule `Cc1cc(-c2c(-c3cccc(C#N)c3)nn3ccc(NC4CCN(S(C)(=O)=O)CC4)nc23)cc(Cl)n1` [Example 2.11], the Ki was 1.5 nM in test [1], 34 nM in test [2], 176 nM in test [4] and over 1000 nM in test [5]. Moreover, the IC50 was determined as 5 nM in the test on human PBMCs and 1330 nM in test [3].
Consider `Cc1cc(-c2c(-c3cccc(C#N)c3)nn3ccc(N4CC5CCC(C4)O5)nc23)cc(Cl)n1` [Example 2.12], for which the inhibition constant (Ki) in test [1] amounted to 1.5 nM; in test [2], 22 nM; in test [4], 87 nM; in test [5] it was 2330 nM. The IC50 turned out to be 32 nM in the test with human PBMCs and 4190 nM in test [3].
For the molecule `Cc1cc(-c2c(-c3cccc(C#N)c3)nn3ccc(N[C@@H](C)C(C)(C)O)nc23)cc(Cl)n1` [Example 2.15], the Ki in test [1] was 2 nM; in test [2], 239 nM; in test [4], 896 nM; in test [5], over 1000 nM. The IC50 in the test on human PBMCs is 59 nM; in test [3], 920 nM.
Regarding `Cc1cc(-c2c(-c3cccc(C#N)c3)nn3ccc(N[C@@H]4COC[C@@H]4O)nc23)cc(Cl)n1` [Example 2.16], the inhibitory constant (Ki) is 2.1 nM in test [1], 4 nM in test [2], 232 nM in test [4] and over 1000 nM in test [5]. Moreover, the IC50 with human PBMCs worked out at 7 nM; in test [3] it was 390 nM.
Regarding `Cc1cc(-c2c(-c3cccc(C#N)c3)nn3ccc(N[C@H]4C[C@H](O)C4)nc23)cc(Cl)n1` [Example 2.18], the Ki in test [1] came to 2.6 nM; in test [2], 10 nM; in test [4] it was 192 nM; in test [5], 2430 nM. Besides, the IC50 was 46 nM in the test with human PBMCs and 1870 nM in test [3].
Regarding `Cc1cc(-c2c(-c3cccc(C#N)c3)nn3ccc(N[C@H](C)C(C)(C)O)nc23)cc(Cl)n1` [Example 2.20], the Ki in test [1] was 3.4 nM; in test [2] it was 18 nM; in test [4], 263 nM; in test [5] it was over 1000 nM. In addition, the IC50 was 68 nM in the test on human PBMCs and 660 nM in test [3].
Regarding `Cc1cc(-c2c(-c3cccc(C#N)c3)nn3ccc(N4CCOC(CCN(C)C)C4)nc23)cc(Cl)n1` (stereo not drawn) [Example 2.21], the Ki in test [1] was 4.6 nM; in test [2], 19 nM; in test [4] it was 178 nM; in test [5] it was over 1000 nM. Moreover, the concentration for half-maximal inhibition (IC50) in the test with human PBMCs came out at 31 nM; in test [3], 1240 nM.
Take `Cc1cc(-c2c(-c3cccc(C#N)c3)nn3ccc(NCc4nnc[nH]4)nc23)cc(Cl)n1` [Example 2.23]: the Ki in test [1] is 6.4 nM; in test [2] it was 3 nM; in test [4], 55 nM; in test [5] it was over 1000 nM. Also, the figures for the IC50 (in the test with human PBMCs; in test [3]) were 24 nM and 570 nM, respectively.
`Cc1cc(-c2c(-c3cccc(C#N)c3)nn3ccc(NC[C@@H](C)O)nc23)cc(Cl)n1` [Example 3, 3-[3-(2-Chloro-6-methyl-4-pyridyl)-5-[[(2R)-2-hydroxypropyl]amino]pyrazolo[1,5-a]pyrimidin-2-yl]benzonitrile]: the inhibition constant (Ki) in test [1] is 0.6 nM; in test [2] it was 1 nM; in test [4], 74 nM; in test [5], over 1000 nM. Moreover, the values for the IC50 (with human PBMCs; in test [3]) were 17 nM and 750 nM, respectively.
As for `Cc1cc(-c2c(-c3cccc(C#N)c3)nn3ccc(NC[C@H](C)O)nc23)cc(Cl)n1` [Example 3.1], the Ki in test [1] was 2.2 nM; in test [2], 5 nM; in test [4], 58 nM; in test [5], 2600 nM. The IC50 was found to be 23 nM in the test with human PBMCs and 560 nM in test [3].
As to `Cc1cc(-c2c(-c3cccc(C#N)c3)nn3ccc(NCC4(O)CC4)nc23)cc(Cl)n1` [Example 3.4], the inhibition constant Ki in test [1] came to 0.4 nM; in test [2] it was 2 nM; in test [4], 56 nM; in test [5], 2450 nM. Also, the IC50 is 100 nM with human PBMCs and 260 nM in test [3].
With `Cc1cc(-c2c(-c3cccc(C#N)c3)nn3ccc(NC4CCNCC4)nc23)cc(Cl)n1` [Example 4, 3-[3-(2-Chloro-6-methyl-4-pyridyl)-5-(4-piperidylamino)pyrazolo[1,5-a]pyrimidin-2-yl]benzonitrile], the inhibitory constant (Ki) is 0.1 nM in test [1], 3 nM in test [2], 15 nM in test [4] and over 1000 nM in test [5]. Moreover, the IC50 with human PBMCs was found to be 8 nM; in test [3] it was 1570 nM.
Take `Cc1cc(-c2c(-c3cccc(C#N)c3)nn3ccc(N[C@@H]4CCCNC4)nc23)cc(Cl)n1` [Example 4.2]: the Ki in test [1] is 1.2 nM; in test [2], 34 nM; in test [4], 32 nM; in test [5], over 1000 nM. Besides, the values for the IC50 (in the test on human PBMCs; in test [3]) were 54 nM and 2030 nM, respectively.
As to `Cc1cc(-c2c(-c3cccc(C#N)c3)nn3ccc(NC[C@H]4COCCN4)nc23)cc(Cl)n1` [Example 4.5], the Ki was 4.2 nM in test [1], 25 nM in test [2], 189 nM in test [4] and over 1000 nM in test [5]. For the same molecule, the IC50 in the test on human PBMCs turned out to be 12 nM; in test [3], 1060 nM.
For the molecule `Cc1cc(-c2c(-c3cccc(C#N)c3)nn3ccc(C(=O)NC45CC(O)(C4)C5)nc23)cc(Cl)n1` [Example 5, 3-(2-Chloro-6-methyl-4-pyridyl)-2-(3-cyanophenyl)-N-(3-hydroxy-1-bicyclo[1.1.1]pentanyl)pyrazolo[1,5-a]pyrimidine-5-carboxamide], the inhibition constant (Ki) in test [1] is 0.8 nM; in test [2], 9 nM; in test [4] it was 296 nM; in test [5] it was over 1000 nM. The IC50 in the test on human PBMCs came to 23 nM; in test [3], 1820 nM.

The term Ki denotes the equilibrium dissociation constant of an inhibitor or competing ligand from its target. A low value points to a stronger hold on the target. Broadly, the IC50 is the concentration at which inhibition is half-maximal.
